# Data: ChEMBL document CHEMBL1201861, “Genomics of Drug Sensitity in Cancer screening data, Wellcome Trust Sanger Institute”
# Tests used:
# Ca-Ski = test: cells; type: functional, cell-based; settings: Homo sapiens;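 also: cell viability assay measuring inhibition of Ca-Ski cell growth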
# Description: SANGER: Inhibition of human Ca-Ski cell growth in a cell viability assay.
# NCI-H596 = test: cells; type: functional, cell-based; settings: Homo sapiens;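 also: growth inhibition of NCI-H596 cells, read out with a cell viability assay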
# Description: SANGER: Inhibition of human NCI-H596 cell growth in a cell viability assay.
# KARPAS-422 = test: cells; type: functional, cell-based, Homo sapiens; settings: Homo sapiens, KARPAS-422
# Description: SANGER: Inhibition of human KARPAS-422 cell growth in a cell viability assay.
# LB373-MEL-D = test: cells; type: functional, cell-based, Homo sapiens; settings: Homo sapiens, LB373-MEL-D;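 also: growth inhibition of the cell line, read out in a cell viability assay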
# Description: SANGER: Inhibition of human LB373-MEL-D cell growth in a cell viability assay.
# AN3-CA = test: cells; type: functional, cell-based; settings: Homo sapiens;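 also: growth inhibition of human AN3-CA cells measured by a cell viability assay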
# Description: SANGER: Inhibition of human AN3-CA cell growth in a cell viability assay.
# SW780 = test: cells; type: functional, cell-based; settings: Homo sapiens;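 also: growth inhibition of the cells, read out with a cell viability assay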
# Description: SANGER: Inhibition of human SW780 cell growth in a cell viability assay.
# LB647-SCLC = test: cells; type: functional, cell-based, Homo sapiens; settings: Homo sapiens, LB647-SCLC;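 also: cell growth inhibition, read out by a viability assay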
# Description: SANGER: Inhibition of human LB647-SCLC cell growth in a cell viability assay.
# NCI-H2170 = test: cells; type: functional, cell-based; settings: Homo sapiens;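 also: cell viability assay measuring growth inhibition of human NCI-H2170 cancer cells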
# Description: SANGER: Inhibition of human NCI-H2170 cell growth in a cell viability assay.
# NCI-H661 = test: cells; type: functional, cell-based; settings: Homo sapiens;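 also: cell viability assay read-out, IC50 being the concentration that inhibits growth of the cells by half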
# Description: SANGER: Inhibition of human NCI-H661 cell growth in a cell viability assay.
# NCI-H1703 = test: cells; type: functional, cell-based; settings: Homo sapiens;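 also: growth inhibition of NCI-H1703 cells, read out via a cell viability assay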
# Description: SANGER: Inhibition of human NCI-H1703 cell growth in a cell viability assay.
# NCI-H187 = test: cells; type: functional, cell-based, Homo sapiens; settings: Homo sapiens, NCI-H187;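 also: growth inhibition of NCI-H187 cells, read out as cell viability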
# Description: SANGER: Inhibition of human NCI-H187 cell growth in a cell viability assay.
# HT1197 = test: cells; type: functional, cell-based, HT-1197; settings: Homo sapiens
# Description: SANGER: Inhibition of human HT-1197 cell growth in a cell viability assay.
# VM-CUB-1 = test: cells; type: functional, cell-based; settings: Homo sapiens;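 also: cell viability assay measuring growth inhibition of the human VM-CUB-1 cell line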
# Description: SANGER: Inhibition of human VM-CUB-1 cell growth in a cell viability assay.
# ST486 = test: SANGER: Inhibition of human ST486 cell growth in a cell viability assay.; type: functional, cell-based; settings: Homo sapiens, ST486
# SW756 = test: cells; type: functional, cell-based; settings: Homo sapiens;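 also: growth inhibition of human SW756 cells, read out with a cell viability assay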
# Description: SANGER: Inhibition of human SW756 cell growth in a cell viability assay.
# HCC1395 = test: cells; type: functional, cell-based; settings: Homo sapiens;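 also: growth inhibition of HCC1395 cells, read out by a cell viability assay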
# Description: SANGER: Inhibition of human HCC1395 cell growth in a cell viability assay.
# BL-70 = test: SANGER: Inhibition of human BL-70 cell growth in a cell viability assay.; type: functional, cell-based; settings: Homo sapiens, BL-70
# PC-3 = test: cells; type: functional, cell-based; settings: Homo sapiens;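 also: cell viability assay measuring growth inhibition of PC-3 cells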
# Description: SANGER: Inhibition of human PC-3 cell growth in a cell viability assay.
# RVH-421 = test: cells; type: functional, cell-based; settings: Homo sapiens
# Description: SANGER: Inhibition of human RVH-421 cell growth in a cell viability assay.
# IST-SL2 = test: cells; type: functional, cell-based, Homo sapiens; settings: Homo sapiens, IST-SL2;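 also: growth inhibition of human IST-SL2 cells, read out by a cell viability assay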
# Description: SANGER: Inhibition of human IST-SL2 cell growth in a cell viability assay.
# CESS = test: SANGER: Inhibition of human CESS cell growth in a cell viability assay.; type: functional, cell-based; settings: Homo sapiens, CESS
# SAOS-2 = test: cells; type: functional, cell-based; settings: Homo sapiens;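 also: growth inhibition of human Saos-2 cells determined by a cell viability assay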
# Description: SANGER: Inhibition of human Saos-2 cell growth in a cell viability assay.
# NCI-H1522 = test: cells; type: functional, cell-based, Homo sapiens; settings: Homo sapiens, NCI-H1522;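 also: growth inhibition of NCI-H1522 cells, read out with a cell viability assay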
# Description: SANGER: Inhibition of human NCI-H1522 cell growth in a cell viability assay.
# SBC-5 = test: cells; type: functional, cell-based; settings: Homo sapiens;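 also: cell viability assay read-out, IC50 is the concentration that inhibits growth of the cells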
# Description: SANGER: Inhibition of human SBC-5 cell growth in a cell viability assay.
# 769-P = test: cells; type: functional, cell-based; settings: Homo sapiens
# Description: SANGER: Inhibition of human 769-P cell growth in a cell viability assay.
# 639-V = test: cells; type: functional, cell-based; settings: Homo sapiens;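 also: growth inhibition of 639-V cells, read out with a cell viability assay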
# Description: SANGER: Inhibition of human 639-V cell growth in a cell viability assay.
# SW1783 = test: cells; type: functional, cell-based; settings: Homo sapiens
# Description: SANGER: Inhibition of human SW1783 cell growth in a cell viability assay.
# NCI-H322M = test: cells; type: functional, cell-based, Homo sapiens; settings: Homo sapiens, NCI-H322M;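 also: cell viability assay measuring inhibition of growth of human NCI-H322M cells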
# Description: SANGER: Inhibition of human NCI-H322M cell growth in a cell viability assay.
# A-375 = test: cells; type: functional, cell-based; settings: Homo sapiens;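 also: growth inhibition of A375 cells, read out with a cell viability assay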
# Description: SANGER: Inhibition of human A375 cell growth in a cell viability assay.
# HGC-27 = test: cells; type: functional, cell-based; settings: Homo sapiens;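 also: growth inhibition of human HGC-27 cells, read out in a cell viability assay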
# Description: SANGER: Inhibition of human HGC-27 cell growth in a cell viability assay.
# A204 = test: cells; type: functional, cell-based; settings: Homo sapiens;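 also: growth inhibition of human A204 cells, read out with a cell viability assay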
# Description: SANGER: Inhibition of human A204 cell growth in a cell viability assay.
# DK-MG = test: cells; type: functional, cell-based; settings: Homo sapiens;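 also: growth inhibition of DK-MG cells, read out with a cell viability assay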
# Description: SANGER: Inhibition of human DK-MG cell growth in a cell viability assay.
# NCI-H1882 = test: cells; type: functional, cell-based, Homo sapiens; settings: Homo sapiens, NCI-H1882;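 also: growth inhibition of the cell line, determined with a viability assay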
# Description: SANGER: Inhibition of human NCI-H1882 cell growth in a cell viability assay.
# 8505C = test: cells; type: functional, cell-based; settings: Homo sapiens
# Description: SANGER: Inhibition of human 8505C cell growth in a cell viability assay.
# SK-MEL-30 = test: cells; type: functional, cell-based; settings: Homo sapiens;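 also: growth inhibition of SK-MEL-30 cells, determined with a cell viability assay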
# Description: SANGER: Inhibition of human SK-MEL-30 cell growth in a cell viability assay.
# SK-OV-3 = test: cells; type: functional, cell-based; settings: Homo sapiens;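 also: growth inhibition of SK-OV-3 human cells, read out with a cell viability assay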
# Description: SANGER: Inhibition of human SK-OV-3 cell growth in a cell viability assay.
# NCI-H2052 = test: cells; type: functional, cell-based; settings: Homo sapiens;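 also: growth inhibition of NCI-H2052 cells, read out with a cell viability assay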
# Description: SANGER: Inhibition of human NCI-H2052 cell growth in a cell viability assay.
# DMS-273 = test: cells; type: functional, cell-based; settings: Homo sapiens
# Description: SANGER: Inhibition of human DMS-273 cell growth in a cell viability assay.
# SR = test: cells; type: functional, cell-based, Homo sapiens; settings: Homo sapiens, SR
# Description: SANGER: Inhibition of human SR cell growth in a cell viability assay.
# KYSE-140 = test: cells; type: functional, cell-based; settings: Homo sapiens;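 also: cell viability assay measuring growth inhibition in human KYSE-140 cells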
# Description: SANGER: Inhibition of human KYSE-140 cell growth in a cell viability assay.
# HT-1376 = test: cells; type: functional, cell-based; settings: Homo sapiens
# Description: SANGER: Inhibition of human HT-1376 cell growth in a cell viability assay.
# SW48 = test: cells; type: functional, cell-based; settings: Homo sapiens;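 also: growth inhibition of SW48 cells, read out with a cell viability assay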
# Description: SANGER: Inhibition of human SW48 cell growth in a cell viability assay.
# HCC1954 = test: cells; type: functional, cell-based; settings: Homo sapiens;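 also: growth inhibition of human HCC1954 cells, read out with a cell viability assay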
# Description: SANGER: Inhibition of human HCC1954 cell growth in a cell viability assay.
# 647-V = test: cells; type: functional, cell-based; settings: Homo sapiens;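 also: growth inhibition of 647-V cells, read out with a cell viability assay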
# Description: SANGER: Inhibition of human 647-V cell growth in a cell viability assay.
# NCI-H1436 = test: cells; type: functional, cell-based, Homo sapiens; settings: Homo sapiens, NCI-H1436;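 also: growth suppression of human NCI-H1436 cells, determined with a cell viability readout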
# Description: SANGER: Inhibition of human NCI-H1436 cell growth in a cell viability assay.
# CAL-120 = test: cells; type: functional, cell-based; settings: Homo sapiens;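 also: cell growth inhibition, read out as cell viability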
# Description: SANGER: Inhibition of human CAL-120 cell growth in a cell viability assay.
# A-431 = test: cells; type: functional, cell-based; settings: Homo sapiens;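 also: growth inhibition of A-431 cells, determined with a cell viability read-out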
# Description: SANGER: Inhibition of human A431 cell growth in a cell viability assay.
# K052 = test: cells; type: functional, cell-based, Homo sapiens; settings: Homo sapiens, K052;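 also: Read-out from a cell viability assay, IC50 reflecting suppression of K052 cell growth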
# Description: SANGER: Inhibition of human K052 cell growth in a cell viability assay.
# SK-HEP1 = test: cells; type: functional, cell-based, SK-HEP-1; settings: Homo sapiens;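 also: cell viability readout used to quantify reduction in proliferation of human SK-HEP-1 cells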
# Description: SANGER: Inhibition of human SK-HEP-1 cell growth in a cell viability assay.
# IGROV-1 = test: cells; type: functional, cell-based; settings: Homo sapiens;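 also: reduction of IGROV-1 cell growth, read out with a viability assay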
# Description: SANGER: Inhibition of human IGROV-1 cell growth in a cell viability assay.
# CAL-33 = test: cells; type: functional, cell-based; settings: Homo sapiens;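 also: growth inhibition of CAL-33 cells, read out with a cell viability assay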
# Description: SANGER: Inhibition of human CAL-33 cell growth in a cell viability assay.
# CaR-1 = test: cells; type: functional, cell-based; settings: Homo sapiens;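 also: growth inhibition of human CaR-1 cancer cells, read out with a cell viability assay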
# Description: SANGER: Inhibition of human CaR-1 cell growth in a cell viability assay.
# EW-24 = test: cells; type: functional, cell-based, Homo sapiens; settings: Homo sapiens, EW-24;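 also: human EW-24 cancer cell line, growth inhibition read out via a cell viability assay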
# Description: SANGER: Inhibition of human EW-24 cell growth in a cell viability assay.
# C-33-A = test: cells; type: functional, cell-based; settings: Homo sapiens;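 also: cell viability assay measuring growth inhibition of C-33-A cells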
# Description: SANGER: Inhibition of human C-33-A cell growth in a cell viability assay.
# SK-MEL3 = test: cells; type: functional, cell-based, SK-MEL-3; settings: Homo sapiens;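 also: growth inhibition of human SK-MEL-3 cells, read out with a cell viability assay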
# Description: SANGER: Inhibition of human SK-MEL-3 cell growth in a cell viability assay.
# A 172 = test: cells; type: functional, cell-based; settings: Homo sapiens;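 also: growth inhibition of A172 cells, measured with a cell viability readout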
# Description: SANGER: Inhibition of human A172 cell growth in a cell viability assay.
# NCI-H2141 = test: cells; type: functional, cell-based, Homo sapiens; settings: Homo sapiens, NCI-H2141;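 also: growth inhibition of human NCI-H2141 cells, read out with a cell viability assay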
# Description: SANGER: Inhibition of human NCI-H2141 cell growth in a cell viability assay.
compound,measurement,setting,value
COC(=O)[C@H](CCSC)NC(=O)c1ccc(NC[C@@H](N)CS)cc1-c1ccccc1,IC50,Ca-Ski,> 1020 nM
same,IC50,NCI-H596,> 1020 nM
same,IC50,KARPAS-422,> 1020 nM
same,IC50,LB373-MEL-D,> 1020 nM
same,IC50,AN3-CA,> 1020 nM
same,IC50,SW780,> 1020 nM
same,IC50,LB647-SCLC,> 1020 nM
same,IC50,NCI-H2170,> 1020 nM
same,IC50,NCI-H661,> 1020 nM
same,IC50,NCI-H1703,> 1020 nM
same,IC50,NCI-H187,> 1020 nM
same,IC50,HT1197,> 1020 nM
same,IC50,VM-CUB-1,> 1020 nM
same,IC50,ST486,> 1020 nM
same,IC50,SW756,> 1020 nM
same,IC50,HCC1395,> 1020 nM
same,IC50,BL-70,> 1020 nM
same,IC50,PC-3,> 1020 nM
same,IC50,RVH-421,> 1020 nM
same,IC50,IST-SL2,> 1020 nM
same,IC50,CESS,> 1020 nM
same,IC50,SAOS-2,> 1020 nM
same,IC50,NCI-H1522,> 1020 nM
same,IC50,SBC-5,> 1020 nM
same,IC50,769-P,> 1020 nM
same,IC50,639-V,> 1020 nM
same,IC50,SW1783,> 1020 nM
same,IC50,NCI-H322M,> 1020 nM
same,IC50,A-375,> 1020 nM
same,IC50,HGC-27,> 1020 nM
same,IC50,A204,> 1020 nM
same,IC50,DK-MG,> 1020 nM
same,IC50,NCI-H1882,> 1020 nM
same,IC50,8505C,> 1020 nM
same,IC50,SK-MEL-30,> 1020 nM
same,IC50,SK-OV-3,> 1020 nM
same,IC50,NCI-H2052,> 1020 nM
same,IC50,DMS-273,> 1020 nM
same,IC50,SR,> 1020 nM
same,IC50,KYSE-140,> 1020 nM
same,IC50,HT-1376,> 1020 nM
same,IC50,SW48,> 1020 nM
same,IC50,HCC1954,> 1020 nM
same,IC50,647-V,> 1020 nM
same,IC50,NCI-H1436,> 1020 nM
same,IC50,CAL-120,> 1020 nM
same,IC50,A-431,> 1020 nM
same,IC50,K052,> 1020 nM
same,IC50,SK-HEP1,> 1020 nM
same,IC50,IGROV-1,> 1020 nM
same,IC50,CAL-33,> 1020 nM
same,IC50,CaR-1,> 1020 nM
same,IC50,EW-24,> 1020 nM
same,IC50,C-33-A,> 1020 nM
same,IC50,SK-MEL3,> 1020 nM
same,IC50,A 172,> 1020 nM
same,IC50,NCI-H2141,> 1020 nM
Cc1ccc(C(=O)Nc2ccc(CN3CCN(C)CC3)c(C(F)(F)F)c2)cc1C#Cc1cnc2cccnn12 [PONATINIB],IC50,Ca-Ski,> 512 nM
same,IC50,NCI-H596,> 512 nM
same,IC50,KARPAS-422,> 512 nM
same,IC50,LB373-MEL-D,> 512 nM
same,IC50,AN3-CA,18.7 nM
same,IC50,SW780,423 nM
same,IC50,LB647-SCLC,> 512 nM
same,IC50,NCI-H2170,> 512 nM
same,IC50,NCI-H661,> 512 nM
same,IC50,NCI-H1703,196 nM
same,IC50,NCI-H187,> 512 nM
same,IC50,HT1197,> 512 nM
same,IC50,VM-CUB-1,> 512 nM
same,IC50,ST486,> 512 nM
same,IC50,SW756,> 512 nM
same,IC50,HCC1395,> 512 nM
same,IC50,BL-70,22 nM
same,IC50,PC-3,> 512 nM
same,IC50,RVH-421,> 512 nM
same,IC50,IST-SL2,> 512 nM
same,IC50,CESS,> 512 nM
same,IC50,SAOS-2,> 512 nM
same,IC50,NCI-H1522,> 512 nM
same,IC50,SBC-5,> 512 nM
same,IC50,769-P,> 512 nM
same,IC50,639-V,> 512 nM
same,IC50,SW1783,> 512 nM
same,IC50,NCI-H322M,> 512 nM
same,IC50,A-375,> 512 nM
same,IC50,HGC-27,294 nM
same,IC50,A204,12.2 nM
same,IC50,DK-MG,> 512 nM
same,IC50,NCI-H1882,> 512 nM
same,IC50,8505C,> 512 nM
same,IC50,SK-MEL-30,> 512 nM
same,IC50,SK-OV-3,> 512 nM
same,IC50,NCI-H2052,315 nM
same,IC50,DMS-273,> 512 nM
same,IC50,SR,> 512 nM
same,IC50,KYSE-140,> 512 nM
same,IC50,HT-1376,> 512 nM
same,IC50,SW48,> 512 nM
same,IC50,HCC1954,> 512 nM
same,IC50,647-V,> 512 nM
same,IC50,NCI-H1436,> 512 nM
same,IC50,CAL-120,476 nM
same,IC50,A-431,> 512 nM
same,IC50,K052,> 512 nM
same,IC50,SK-HEP1,334 nM
same,IC50,IGROV-1,> 512 nM
same,IC50,CAL-33,> 512 nM
same,IC50,CaR-1,> 512 nM
same,IC50,EW-24,> 512 nM
same,IC50,C-33-A,> 512 nM
same,IC50,SK-MEL3,> 512 nM
same,IC50,A 172,296 nM
same,IC50,NCI-H2141,> 512 nM
C/C(=C\c1csc(C)n1)[C@@H]1C[C@@H]2O[C@]2(C)CCC[C@H](C)[C@H](O)[C@@H](C)C(=O)C(C)(C)[C@@H](O)CC(=O)O1 [PATUPILONE],IC50,Ca-Ski,3.85 nM
same,IC50,NCI-H596,11.6 nM
same,IC50,KARPAS-422,10.6 nM
same,IC50,LB373-MEL-D,18.1 nM
same,IC50,AN3-CA,0.452 nM
same,IC50,SW780,> 32 nM
same,IC50,LB647-SCLC,3.1 nM
same,IC50,NCI-H2170,5.22 nM
same,IC50,NCI-H661,30.1 nM
same,IC50,NCI-H1703,7.76 nM
same,IC50,NCI-H187,> 32 nM
same,IC50,HT1197,> 32 nM
same,IC50,VM-CUB-1,3.09 nM
same,IC50,ST486,0.721 nM
same,IC50,SW756,> 32 nM
same,IC50,HCC1395,> 32 nM
same,IC50,BL-70,2.16 nM
same,IC50,PC-3,23.4 nM
same,IC50,RVH-421,14.3 nM
same,IC50,IST-SL2,7.03 nM
same,IC50,CESS,3.38 nM
same,IC50,SAOS-2,> 32 nM
same,IC50,NCI-H1522,> 32 nM
same,IC50,SBC-5,0.912 nM
same,IC50,769-P,0.753 nM
same,IC50,639-V,0.218 nM
same,IC50,SW1783,1.48 nM
same,IC50,NCI-H322M,> 32 nM
same,IC50,A-375,0.05 nM
same,IC50,HGC-27,0.338 nM
same,IC50,A204,3.12 nM
same,IC50,DK-MG,> 32 nM
same,IC50,NCI-H1882,> 32 nM
same,IC50,8505C,0.451 nM
same,IC50,SK-MEL-30,1.34 nM
same,IC50,SK-OV-3,1.5 nM
same,IC50,NCI-H2052,> 32 nM
same,IC50,DMS-273,1.62 nM
same,IC50,SR,3.65 nM
same,IC50,KYSE-140,1.23 nM
same,IC50,HT-1376,21.2 nM
same,IC50,SW48,4.2 nM
same,IC50,HCC1954,9.19 nM
same,IC50,647-V,2.42 nM
same,IC50,NCI-H1436,7.83 nM
same,IC50,CAL-120,10.1 nM
same,IC50,A-431,< 0.125 nM
same,IC50,K052,5.84 nM
same,IC50,SK-HEP1,1.11 nM
same,IC50,IGROV-1,0.156 nM
same,IC50,CAL-33,1.52 nM
same,IC50,CaR-1,> 32 nM
same,IC50,EW-24,> 32 nM
same,IC50,C-33-A,3.27 nM
same,IC50,SK-MEL3,20.9 nM
same,IC50,A 172,1.92 nM
same,IC50,NCI-H2141,13.7 nM
